Values quoted from earlier work in publication PMC10721329, “Quisinostat is a brain-penetrant radiosensitizer in glioblastoma” (JCI Insight, 2023).

Conditions: human, in vivo; cited from earlier work

## Cc1[nH]c2ccccc2c1CCNCc1ccc(/C=C/C(=O)NO)cc1 [panobinostat]
  hematologic toxicities compared with QST: far more common and severe (grade 3 and 4)
